Patent publication US5223484A, “Peptide which regulates weight gain in mammals” (Georgetown University, priority 1990, dated 1993)

How the values were obtained:
[1] = Body weight of rabbits injected with peptide/carrier conjugate; assay type: in vivo; settings: female rabbits, peptide coupled to keyhole limpet hemocyanin, 50 μg of peptide subcutaneously, repeated at two weeks then approximately monthly; P1 and P3 pooled (five rabbits)
Experimental: These peptides were then coupled chemically to keyhole limpet hemocyanin, a carrier protein, to improve the immunogenicity in rabbits.
Each peptide/carrier conjugate (50 μg of peptide, approximately 30 nanomoles) was injected subcutaneously into three female rabbits (three groups of three rabbits, approximately 2 months old). Two weeks later the rabbits were injected again with the same amounts of peptide/carrier conjugate. Thereafter, each rabbit was injected with the conjugate at approximately monthly intervals and blood samples were drawn. After five months, the rabbits were sacrificed.
Before the first injection, the rabbits were weighed for calculation of anesthetic dose (used to sedate the rabbits during injection). Before the rabbits were sacrificed, they were weighed again as the rabbits which received P2 were quite obese compared to all other rabbits. The average weight of the five injected with peptides P1 and P3 was 4.4 kg. This is normal for adult female rabbits of this type at this age, i.e. the average weight expected at 6 months is 4.5 kg. However, the weights of the rabbits injected with peptide P2 averaged 5.2 kg, approximately 20% higher.

[2] = Weight gain of mice injected with free peptide; assay type: in vivo, mice (BALB/c strain); settings: BALB/c mice, free peptide 2.5 μg subcutaneously once per week, 85 days, five mice per group
Experimental: In order to obtain statistically significant data on the effects of peptide P2 on weight gain, another series of experiments using mice were performed. Three groups of five mice (BALB/c strain) were used. The first group received injections of peptide P2, a second group received injections of P3 (as control), and a third group received injections of saline (as control). Free peptides were used to avoid the possibility that the effect observed in Example 1 may have been due to the nature of the chemical coupling to the carrier protein. Each mouse (weighing approximately 15 grams) received an injection of 2.5 μg (1.5 nanomoles) of peptide or saline injected subcutaneously. The mice were weighed three times per week and injected once per week with another 2.5 μg of peptide or saline. After 85 days the mice were sacrificed.

## P3: amino-terminal cytochrome b 561 sequence Ser(21) - Tyr(37), cysteine added at amino-terminus, two lysine residues at carboxy-terminus (CSMEGPASPARAPGALPYKK)
[1]
  average weight of the rabbits at the end of five months: 4.4 kg
[2]
  effect on weight gain: not different than the P3 control group

## KRPLQAEEQALSMDF [P1]
[1]
  average weight of the rabbits at the end of five months: 4.4 kg
